# Results taken from patent EP4129284B1, “SERTACONAZOL FOR PROVIDING A SPORISTATIC AND/OR SPORICIDAL EFFECT” (Dr. Pfleger Arzneimittel GmbH, priority 2021, dated 2023).
# Key:
# Assay type in all cases: cell-based, human
# IL-1α = system: IL-1α
# Experimental: (§1) Additionally, the influence on the cell viability and the release of lactate dehydrogenase (LDH) was examined over the incubation time. Disruptions of the cell membranes can be measured by the release of the cytosolic enzyme LDH and be evaluated as a marker for cellular necrosis. As the biocompatibility of the material is determined by further cellular and molecular factors, the analysis of the cellular interleukin release allows the conclusion on e.g. pro-inflammatory effects of the substances, which would not be possible to be detected by sole cytotoxicity. Such interleukins are interleukins 1α, 6 or 8, which are involved in coordinating the cellular proliferation, cell migration and possible inflammatory processes. Such a method is described in, for example, Wiegand C, Hipler UC. Evaluation of biocompatibility and cytotoxicity using keratinocyte and fibroblast cultures. Skin Pharmacol Physiol 2009; 22:74-82; Wiegand C, Winter D, Hipler UC. Molecular-weight-dependent toxic effects of chitosans on the human keratinocyte cell line HaCaT. Skin Pharmacol Physiol. 2010;23(3):164-70.
# (§2) The spore suspensions and the solutions of sertaconazol, ciclopiroxolamin and terbinafin were prepared as in Example 1, wherein the respective test concentrations were obtained by diluting these solutions in ultrapure water (WFI; Fresenius Kabi) instead of SGB (Merck). Full skin models were produced as previously described [Reddersen K, Wiegand C, Elsner P, Hipler UC. Three-dimensional human skin model infected with Staphylococcus aureus as a tool for evaluation of bioactivity and biocompatibility of antiseptics. Int J Antimicrob Agents. 2019; 54(3):283-291; Wiegand C, Fink S, Beier O, Horn K, Pfuch A, Schimanski A, Grünler B, Hipler UC, Elsner P. Dose- and Time-Dependent Cellular Effects of Cold Atmospheric Pressure Plasma Evaluated in 3D Skin Models. Skin Pharmacol Physiol. 2016;29(5):257-265].Particularly, normal human dermal fibroblasts (NHDF; Lot 1060702.1, Promocell) and normal human epidermal keratinocytes (NHEK; Lot 9100102, Promocell) were used. Fibroblasts were cultivated in Dulbecco's modified eagle medium (DMEM; Lot MC09049P, Amimed), with 2% foetal calf serum (Lot P160509; PAN), 5 ng/mL hFGF (Lot 0329586; novoprotein) and 5 µg/ml Insulin (Lot H07443P, AMIMED) at 37°C and a 5% CO2 atmosphere. Keratinocytes were cultivated in keratinocyte medium (KBM, Lot 446M063, Promocell) at 37°C and a 5% CO2 atmosphere. The cultivation was performed over 7 days in 75 cm^2 cell culture flasks (Greiner Bio-One). The cells were subsequently detached with Trypsin-EDTA (Lot 2091326; Gibco) and dissolved in the respective medium. For producing the dermis equivalent, fibroblasts were cultivated in 12-well inserts (Greiner bio-one) with DMEM (Lot MC09049P, Amimed) + 10% foetal calf serum (Lot P160509, PAN) + 1% Gentamycin (Lot 2027100, Gibco) + 150 µg/ml ascorbic acid (Lot BCBS1081V, Sigma) for 3 weeks at […] and 5 % CO2. The medium was changed all 2-3 days. Before seeding the keratinocytes for producing the […], the medium surrounding the insert was completely removed and the dermis upper layer was coated with fibronectin (50 µg/mL; Lot 435P078, Promocell). After 30 min of incubation of the dermis equivalent with fibronectin, the seeding of the keratinocytes was performed with 2 × 10^5 cells / insert in KBM (Lot 446M063, Promocell) + 5% FKS (Lot P160509, PAN) + 1% Gentamycin (Lot 2027100, Gibco). Subsequently, the skin models were incubated for 45 min in the incubator before the models were flooded with KBM + 5% FKS + 1% Gentamycin. The skin models were cultivated for 7 days by submersion in the medium with decreasing foetal calf serum concentration (5 %, 2 %, 0 %). The medium was changed all 2-3 days. After the cultivation by submersion, the skin models were further cultivated for 12 days at the air-medium interface (airlift cultivation). […]
# IL-8 = system: IL-8
# Experimental: as §1, §2
# IL-6 = system: IL-6
# Experimental: as §1, §2
Compound,secretion of IL-1α (IL-1α),release of IL-8 (IL-8),release of IL-6 (IL-6)
"Cc1cc(C2CCCCC2)n(O)c(=O)c1 [Ciclopiroxolamin, ciclopiroxolamin]",no significant secretion,–,–
"Clc1ccc(C(Cn2ccnc2)OCc2csc3c(Cl)cccc23)c(Cl)c1 (stereo not shown) [Sertaconazol, sertaconazol]",–,does not induce the release,does not induce the release
"CN(C/C=C/C#CC(C)(C)C)Cc1cccc2ccccc12 [Terbinafin, terbinafin]",no significant secretion,–,–
